Assay [1] relates to cultured human mast cells (CHMC). Description: CHMC low cell density ionomycin activation: tryptase assay. Particulars: Homo sapiens, Mast cell, Low Density CHMC, ionomycin activation, tryptase readout; read-out: CHMC Ionomycin Tryptase. Format: cell-based.
Assay [2] has the same test system. Kind of assay: CHMC low cell density IgE activation: tryptase and LTC4 assays. Format: cell-based. Particulars: Homo sapiens, Mast cell, Low Density CHMC, anti-IgE activation. An outline of the steps:
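Cultured human mast cells at low density (1000-1500 per well) rested 1 h at 37° C, then stimulated with anti-IgE for 30 min at 37° C. Supernatant tryptase measured with fluorogenic substrate (30 min, room temperature); LTC4 quantified by ELISA on diluted supernatant.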

Setting [3] is: tryptase readout, read-out: CHMC anti-IgE Tryptase.

Among the data in US10828301B2, “2,4-pyrimidinediamine compounds and their uses” (Rigel Pharmaceuticals, Inc, priority 2002, dated 2020) are IC50 values, retold here.

With `Brc1cnc(Nc2ccc3c(c2)OCCO3)nc1Nc1ccc2c(c1)OCCO2` [Compound R925771, N2,N4-Bis(3,4-ethylenedioxyphenyl)-5-bromo-2,4-pyrimidinediamine], the IC50 came to 2.8 µM in assay [1]; 0.22 µM in assay [2] (LTC4 readout, read-out: CHMC anti-IgE LTC4); 0.5 µM in assay [2] (setting [3]).

In the case of `COc1cc(Nc2ncc(F)c(Nc3cccc(O)c3)n2)c(OC)cc1Cl` [Compound R926857, N2-(4-Chloro-2,5-dimethoxyphenyl)-5-fluoro-N4-(3-hydroxyphenyl)-2,4-pyrimidinediamine], the results for the IC50 in assay [1] and in assay [2] (setting [3]) were more than 10 µM and 1.21 µM, respectively.

With `NC(=O)C=Nc1cccc(Nc2ncc(F)c(Nc3cccc(O)c3)n2)c1` [Compound R950219, N2-(3-Aminocarbonylmethyleneaminophenyl)-5-fluoro-N4-(3-hydroxyphenyl)-2,4-pyrimidinediamine], the IC50 in assay [1] was more than 10 µM; in assay [2] (setting [3]), 0.439 µM.

Turning to `Fc1cnc(NC(c2ccc(Cl)cc2)c2ccc(Cl)cc2)nc1NC(c1ccc(Cl)cc1)c1ccc(Cl)cc1` [Compound R935006, N2,N4-Bis[di-(4-chlorophenyl)methyl]-5-fluoro-2,4-pyrimidinediamine], the IC50 in assay [1] is 9.8 µM; in assay [2] (setting [3]), 10 µM.

Regarding `Oc1cccc(Nc2ncc(C(F)(F)F)c(Nc3cccc(O)c3)n2)c1` [Compound R925863, N2,N4-Bis(3-hydroxyphenyl)-5-trifluoromethyl-2,4-pyrimidinediamine], the IC50 in assay [1] is more than 10 µM; in assay [2] (setting [3]), 0.274 µM.

For `Fc1cnc(N=Cc2ccoc2)nc1Nc1ccc2c(c1)OCCO2` [Compound R950203, N4-(3,4-Ethylenedioxyphenyl)-N2-(3-furanylmethylene)-5-fluoro-2,4-pyrimidinediamine], the IC50 in assay [1] is more than 10 µM; in assay [2] (setting [3]), 9.04 µM.

Consider `COC(=O)c1cc2cc(Nc3ncc(F)c(Nc4cccc(C(C)(C)C)c4)n3)ccc2o1` [Compound R940281, N4-(3-tert-Butylphenyl)-5-fluoro-N2-(2-methoxycarbonylbenzofur-5-yl)-2,4-pyrimidinediamine], for which the IC50 in assay [1] was 5.53 µM; in assay [2] (setting [3]) it was 0.525 µM.

As to `COC(=O)C1Cc2cc(Nc3ncc(F)c(Nc4ccc(Cl)cc4)n3)ccc2O1` (racemic) [Compound R927024, (±)-N4-(4-Chlorophenyl)-N2-(2,3-dihydro-2-methoxycarbonylbenzofuran-5-yl)-5-fluoro-2,4-pyrimidinediamine], the IC50 in assay [1] worked out at 99 µM; in assay [2] (setting [3]), 0.326 µM.

For `CCOC(=O)C=Nc1cccc(Nc2ncc(F)c(Nc3cccc(N=CC(=O)OCC)c3)n2)c1` [Compound R950184, N2,N4-Bis(3-ethoxycarbonylmethyleneaminophenyl)-5-fluoro-2,4-pyrimidinediamine], the IC50 was more than 10 µM in assay [1] and 2.22 µM in assay [2] (setting [3]).

For the molecule `Cc1c(O)cccc1Nc1ncc(F)c(Nc2cccc(O)c2C)n1` [Compound R945038, N2,N4-Bis(3-hydroxy-2-methylphenyl)-5-fluoro-2,4-pyrimidinediamine], the IC50 in assay [1] and in assay [2] (setting [3]) was more than 10 µM throughout.

On to `N#Cc1cccc(Nc2ncc(F)c(Nc3cccc(C#N)c3)n2)c1` [Compound R945051, N2,N4-Bis(3-cyanophenyl)-5-fluoro-2,4-pyrimidinediamine], for which the IC50 in assay [1] was more than 10 µM; in assay [2] (setting [3]), 0.95 µM.

`Fc1cnc(Nc2ccc3cc[nH]c3c2)nc1Nc1ccc2c(c1)OCCO2` [Compound R926750, N4-(3,4-Ethylenedioxyphenyl)-5-fluoro-N2-[(1H)-indol-6-yl]-2,4-pyrimidinediamine]: the IC50 in assay [1] is more than 10 µM; in assay [2] (setting [3]) it was 0.361 µM.

Regarding `CC(C)(CO)c1ccc(Nc2nc(Nc3cccc(OCCO)c3)ncc2F)cc1` [Compound R935161, 5-Fluoro-N4-[4-(2-hydroxy-1,1-dimethylethyl)phenyl]-N2-[3-(2-hydroxyethoxy)phenyl]-2,4-pyrimidinediamine], the figures for the IC50 in assay [1] and in assay [2] (setting [3]) were more than 10 µM and 0.277 µM, respectively.

Regarding `Fc1cnc(NC(c2ccccc2)c2ccccc2)nc1NC(c1ccccc1)c1ccccc1` [Compound R935005, N2,N4-Bis(diphenylmethyl)-5-fluoro-2,4-pyrimidinediamine], the IC50 in assay [1] and in assay [2] (setting [3]) was more than 10 µM in each case.

Consider `COC(=O)c1cc2cc(Nc3ncc(F)c(Nc4ccc5c(c4)OCCO5)n3)ccc2o1` [Compound R926690, N4-(3,4-Ethylenedioxyphenyl)-5-fluoro-N2-[2-(methoxycarbonyl)benzofuran-5-yl]-2,4-pyrimidinediamine], for which the IC50 is more than 10 µM in assay [1] and 0.146 µM in assay [2] (setting [3]).

`CN1C=COc2ccc(Nc3nc(Nc4cccc(O)c4)ncc3F)cc21` [Compound R908710, 5-Fluoro-N2-(3-hydroxyphenyl)-N4-(N-methyl-1,4-benzoxazin-6-yl)-2,4-pyrimidinediamine]: the figures for the IC50 in assay [1] and in assay [2] (setting [3]) were 99 µM and 1.84 µM, respectively.

In the case of `CN(C)c1cccc(Nc2ncc(F)c(Nc3cccc(N(C)C)c3)n2)c1` [Compound R950182, N2,N4-Bis[3-(dimethylamino)phenyl]-5-fluoro-2,4-pyrimidinediamine], the IC50 in assay [1] is more than 10 µM; in assay [2] (setting [3]), 0.627 µM.

`O=[N+]([O-])c1cnc(Nc2ccc3c(c2)OC(F)(F)O3)nc1Nc1ccc2c(c1)OC(F)(F)O2` [Compound R940100, N2,N4-Bis-(2,2-difluoro-1,3-benzodioxol-5-yl)-5-nitro-2,4-pyrimidinediamine]: the IC50 in assay [1] and in assay [2] (setting [3]) was more than 10 µM each time.

As to `Oc1cccc(Nc2nc(NCCc3c[nH]c4ccccc34)ncc2F)c1` [Compound R945117, 5-Fluoro-N4-(3-hydroxyphenyl)-N2-[2-(indol-3-yl)ethyl]-2,4-pyrimidinediamine], the figures for the IC50 in assay [1] and in assay [2] (setting [3]) were more than 10 µM and 4.08 µM, respectively.

For the molecule `CCOC(=O)c1nc(Nc2ccc3c(c2)OCCO3)nc(Nc2ccc3c(c2)OCCO3)c1[N+](=O)[O-]` [Compound R925852, N2,N4-Bis(3,4-ethylendioxyphenyl)-6-ethoxycarbonyl-5-nitro-2,4-pyrimidinediamine], the IC50 in assay [1] is more than 10 µM; in assay [2] (setting [3]), 3 µM.

Consider `OB(O)c1cccc(Nc2nc(Nc3cccc(O)c3)ncc2F)c1` [Compound R926755, 5-Fluoro-N4-(3-dihydroxyborylphenyl)-N2-(3-hydroxyphenyl)-2,4-pyrimidinediamine], for which the IC50 in assay [1] is more than 10 µM; in assay [2] (setting [3]), 1.69 µM.

In the case of `Oc1cccc(Nc2nc(Nc3cccc(-c4cnco4)c3)ncc2F)c1` [Compound R926831, 5-Fluoro-N4-(3-hydroxyphenyl)-N2-[3-(1,3-oxazol-5-yl)phenyl]-2,4-pyrimidinediamine], the IC50 in assay [1] turned out to be 10 µM; in assay [2] (setting [3]) it was 0.133 µM.

As for `CNC(=O)C1Cc2cc(Nc3ncc(F)c(Nc4ccc(Cl)c(Cl)c4)n3)ccc2O1` (racemic) [Compound R927037, (±)-N4-(3,4-Dichlorophenyl)-N2-[2,3-dihydro-2-(N-methylamino)carbonylbenzofuran-5-yl]-5-fluoro-2,4-pyrimidinediamine], the results for the IC50 in assay [1] and in assay [2] (setting [3]) were more than 10 µM and 0.233 µM, respectively.

Turning to `CCOC(=O)C=Nc1ccc(Nc2ncc(C(=O)OCC)c(Nc3ccc(N=CC(=O)OCC)cc3)n2)cc1` [Compound R926331, N2,N4-Bis(4-ethoxycarbonylmethyleneaminophenyl)-5-ethoxycarbonyl-2,4-pyrimidinediamine], the IC50 in assay [1] and in assay [2] (setting [3]) was more than 10 µM throughout.
